Data: US20200354327A1, “COMPOUND HAVING STAT3 INHIBITORY ACTIVITY AND USE THEREOF” (CYTUS H&B CO., LTD., priority 2017, published 2020)

Columns and labels:
[1] = target: T1, STAT3 (Homo sapiens, UniProt P40763); experiment: STAT3-TA-luciferase assay in HEK293T cells; type: cell-based
Method: Assay on the expression of luciferase was performed as previously described (Jung J E, et al. FASEB J. 19, 1296-1298 (2005)). Plasmid DNA having STAT3-TA-luciferase as a reporter construct was temporarily expressed in HEK293T cells using Lipofectamine 2000, the HEK293T cells were treated with ODZ10117, the level of STAT3 expression was measured using a luminometer, and the inhibitory effect was compared with that of the DMSO-treated group.

[2] = target: T1, STAT3; experiment: Western blot in STAT3-phosphorylated human malignant glioblastoma; type: cell-based; set-up: endogenous in cells; host or cells: L540, HDLM-2, U87-MG, MDA-MB-231, further human glioblastoma and breast cancer lines
Method: Western blot analysis was performed (Jung J E, et al. FASEB J. 19, 1296-1298 (2005)). The cells were washed two times with PBS and suspended in the lysate (50 mM Tris-HCl, pH 7.4, 350 mM NaCl, 1% Triton X-100, 0.5% Nonidet P-40, 10% glycerol, 0.1% SDS, 1 mM EDTA, 1 mM EGTA, 1 mM Na3VO4, 1 mM PMSF, protease and phosphorylation inhibitor) and the cell membrane and nuclear membrane were crushed to lyse the cells. The insoluble protein fraction was removed by centrifugation, and the supernatant was mixed with SDS electrophoresis buffer and electrophoresis (SDS-PAGE) was performed to detect the protein with the desired antibody and to confirm the protein expression level.

T1 sequence (P40763 whole entry): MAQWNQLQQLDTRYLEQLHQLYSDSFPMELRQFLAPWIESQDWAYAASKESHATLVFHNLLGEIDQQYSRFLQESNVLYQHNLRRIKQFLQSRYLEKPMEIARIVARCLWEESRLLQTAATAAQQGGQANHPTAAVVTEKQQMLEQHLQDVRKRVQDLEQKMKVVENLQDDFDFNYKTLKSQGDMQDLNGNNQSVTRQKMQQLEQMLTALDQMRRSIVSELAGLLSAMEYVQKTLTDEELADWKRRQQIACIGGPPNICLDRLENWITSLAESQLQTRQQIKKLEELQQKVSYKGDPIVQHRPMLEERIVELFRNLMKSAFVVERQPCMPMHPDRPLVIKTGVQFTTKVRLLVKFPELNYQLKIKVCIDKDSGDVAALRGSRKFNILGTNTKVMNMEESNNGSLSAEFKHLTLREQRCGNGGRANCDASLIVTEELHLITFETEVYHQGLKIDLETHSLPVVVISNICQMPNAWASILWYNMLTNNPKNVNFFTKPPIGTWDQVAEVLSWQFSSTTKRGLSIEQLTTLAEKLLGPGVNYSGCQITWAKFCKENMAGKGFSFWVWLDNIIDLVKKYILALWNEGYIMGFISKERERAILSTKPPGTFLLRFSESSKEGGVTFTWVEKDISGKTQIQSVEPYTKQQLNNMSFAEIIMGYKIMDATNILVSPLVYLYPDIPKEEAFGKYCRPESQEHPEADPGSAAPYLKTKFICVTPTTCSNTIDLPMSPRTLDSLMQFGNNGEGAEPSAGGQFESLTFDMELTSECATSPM

SMILES: Clc1ccc(OCc2noc(C(Cl)(Cl)Cl)n2)c(Cl)c1 [ODZ10117, 3-(2,4-dichloro-phenoxymethyl)-5-trichloromethyl-[1,2,4]oxadiazole]
- promoter activity of STAT3 ([1]; compared with DMSO-treated group): significantly decreased the promoter activity of STAT3
- transcriptional activity of STAT3 ([1]; various concentrations): inhibited the transcriptional activity of STAT3 in a concentration-dependent manner
- phosphorylation of tyrosine 705 of STAT3 [2]: inhibited the phosphorylation of tyrosine 705 of STAT3 in STAT3-phosphorylated human malignant glioblastoma in a concentration-dependent manner
- time to complete inhibition of phosphorylation of STAT3 after treatment [2]: ≤ 2 h
- STAT3 inhibitory efficacy compared with known inhibitors ([2]; versus NSC628869 and NSC74859): superior STAT3 inhibitory efficacy to NSC628869 and NSC74859
